Test system: human airway epithelial cells
Assay: CBF and MCT speed of HAE cells cultured in the MCTD after stimulation by ATPγS
Format: cell-based
Conditions: HAE cell cultures with circular MCT in the MCTD; 1 mM ATPγS in buffer added to apical surface; average of four experiments/donors; p<0.05 vs carrier and baseline
Text: An MCT culturing device (MCTD) and the MCT system (MCTS) generally configured as shown for the MCTD 100 and MCTS 10 were constructed. The MCTD was constructed on a 30 mm Millicell™ cell culture insert (Millipore, Ireland). The base of an approximately 15 mm diameter central cylinder of cell culture compatible material (nylon, polystyrene) was attached to the center interior of the cell culture insert with an inert, silicone-based sealer. The approximately 4.0 mm outer ring or track defined in the bottom of the cell culture insert between the central cylinder and the cell culture insert was then coated with human Type IV collagen at ˜90 μg/cm^2, air-dried, and UV-irradiated. […] Cultures were examined at the time of media change and the extent of ciliation and the development of continuous, circular transport was recorded. […] High speed videos were recorded from four equally spaced positions around the MCTD. Ciliary beat frequency (CBF) was determined by whole field analysis using the SAVA™ software program (Sisson, Stoner et al. 2003), and the speed and direction of particle transport were determined by tracking particles of debris in the mucus. Alternatively, a small volume of fluid (0.5 μl) containing fluorescent beads was added to the mucus layer, and after equilibration (5-10 minutes), the motion of the fluorescent beads was recorded and analyzed using fluorescent microscopy. […]

Structure (SMILES): Nc1ncnc2c1ncn2[C@@H]1O[C@H](COP(=O)(O)OP(=O)(O)OP(O)(O)=S)[C@@H](O)[C@H]1O [ATPγS]
- MCT speed (mucociliary transport): significantly increased
- ciliary beat frequency (CBF): significantly increased

From patent US20150252329A1, “METHODS AND APPARATUS FOR CULTURING CILIATED CELLS” (THE UNIVERSITY OF NORTH CAROLINA AT CHAPEL HILL, priority 2012, published 2015)
